Source: US7956060B2, “Pyrimidine derivative compound” (Kyowa Hakko Kirin Co., Ltd., priority 2004, dated 2011)

Tested on: human acute myeloid leukemia cell line MV-4-11
Assay: Cytostatic activity on leukemia cell line (WST-1 assay)
Type: cell-based
Details: MV-4-11 cells, test compound 10 μmol/L, 72 hours
Experimental: The cytostatic rate (%) of a test compound on human acute myeloid leukemia cell line MV-4-11 was determined in the following manner.
Each cell was cultured using Roswell Park Memorial Institute's Medium (RPMI) 1640 (Gibco, Catalog No. 11875-093) containing 10% fetal bovine serum (Gibco, Catalog. No. 10437-028) and 1% penicillin/streptomycin (1:1) (Gibco, Catalog No. 15140-122). Each 80 μL of the MV-4-11 cell having a concentration of 7.5×10^4 cells/mL (or K562 cell having a concentration of 2.5×10^4 cells/mL) was inoculated to wells of a TC MICROWELL 96U plate (Nalge Nunc International, Catalog No. 163320) and was cultured in a 5% carbon dioxide gas incubator at 37° C. for 4 hours. As a blank, only RPMI medium (80 μL) was added to a well. […] Then, the absorbances at 450 nm (reference wavelength: 690 nm) were determined with a microplate spectrophotometer SPECTRA max 340PC (Molecular Devices Corporation). The relative growth (%) of a well to which the test compound had been added was determined while setting the absorbance of a well to which not the test compound but DMSO alone had been added (control) at 100% and that of a well containing RPMI medium alone at 0%. The cytostatic rate (%) of the test compound was determined by subtracting the calculated relative growth from 100.

For CCNc1nc(NCCc2ccncc2)ncc1-c1nnc(CN2CCN(C)CC2)o1 [Compound 4-32], the “cytostatic rate MV-4-11 (%, 10 μmol/L)” value was 99%.
